Tests used:
Histamine H1 receptor = Histamine H1 receptor (Cavia porcellus, UniProt P31389); assay: Histamine H1 receptor antagonistic activity in guinea pig ileum […]; format: functional, tissue-based; conditions: read-out: pA2 (converted)
[1] = target: Histamine H1 receptor (Homo sapiens) (UniProt P35367); conditions: U-373MG ATCC
Chain of Histamine H1 receptor (Homo sapiens) (P35367 whole entry): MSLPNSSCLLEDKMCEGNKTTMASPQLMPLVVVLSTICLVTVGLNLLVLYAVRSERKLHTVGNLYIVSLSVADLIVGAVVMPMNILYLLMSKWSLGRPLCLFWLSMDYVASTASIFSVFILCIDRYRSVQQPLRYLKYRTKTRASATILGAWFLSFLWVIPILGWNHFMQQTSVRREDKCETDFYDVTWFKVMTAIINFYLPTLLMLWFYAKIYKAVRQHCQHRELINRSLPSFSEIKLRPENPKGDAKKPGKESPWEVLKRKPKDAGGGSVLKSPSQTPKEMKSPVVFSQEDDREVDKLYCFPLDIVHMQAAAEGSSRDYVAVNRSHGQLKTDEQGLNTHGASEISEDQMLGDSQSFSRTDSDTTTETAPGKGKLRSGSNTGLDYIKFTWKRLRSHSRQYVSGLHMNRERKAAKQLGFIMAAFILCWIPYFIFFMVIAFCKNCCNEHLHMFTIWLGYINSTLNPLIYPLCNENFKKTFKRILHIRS
Description: Histamine H1 receptor antagonistic activity in U373MG human glioblastoma cells using fluorescence-labeled H1 as radioligand in Ca+2 assay

Chain of Histamine H1 receptor (P31389 whole entry): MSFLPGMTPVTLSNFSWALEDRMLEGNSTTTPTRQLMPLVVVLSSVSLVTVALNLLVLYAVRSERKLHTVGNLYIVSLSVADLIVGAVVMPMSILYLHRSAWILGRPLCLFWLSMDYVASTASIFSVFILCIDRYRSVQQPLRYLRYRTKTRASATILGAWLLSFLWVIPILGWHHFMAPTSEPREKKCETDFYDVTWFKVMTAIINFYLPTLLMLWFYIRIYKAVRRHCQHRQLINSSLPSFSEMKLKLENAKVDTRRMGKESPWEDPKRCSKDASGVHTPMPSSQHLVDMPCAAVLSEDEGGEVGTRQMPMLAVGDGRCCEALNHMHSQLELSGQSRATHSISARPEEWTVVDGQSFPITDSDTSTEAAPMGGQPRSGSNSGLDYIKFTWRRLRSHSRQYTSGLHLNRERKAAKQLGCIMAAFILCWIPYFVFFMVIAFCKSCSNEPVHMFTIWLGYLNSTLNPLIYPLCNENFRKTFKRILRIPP

Row | Kb (Histamine H1 receptor) | pKB [1] | SMILES
1 | 0.0692 µM | 7.21 | COc1ccc(CN(CCN(C)CCNC(=O)c2ccc(-c3c4ccc(=O)cc-4oc4cc(O)ccc34)c(C(=O)O)c2)c2ccccn2)cc1
2 | 0.00468 µM |  | COc1ccc(CN(CCN(C)CCNc2ccc([N+](=O)[O-])c3n[o+][n-]c23)c2ccccn2)cc1
3 | 0.0331 µM | 7.54 | COc1ccc(CN(CCN(C)CCCCCCNC(=O)c2ccc(-c3c4ccc(=[N+](C)C)cc-4oc4cc(N(C)C)ccc34)c(C(=O)[O-])c2)c2ccccn2)cc1
4 | 0.00447 µM | 8.47 | COc1ccc(CN(CCN(C)CCCCNC(=O)c2ccc(-c3c4ccc(=O)cc-4oc4cc(O)ccc34)c(C(=O)O)c2)c2ccccn2)cc1
5 | 0.0129 µM | 8.03 | COc1ccc(CN(CCN(C)CCCCCCN)c2ccccn2)cc1
6 | 0.00339 µM | 8.94 | COc1ccc(CN(CCN(C)CCCCCCCCNC(=O)c2ccc(-c3c4ccc(=O)cc-4oc4cc(O)ccc34)c(C(=O)O)c2)c2ccccn2)cc1
7 | 0.00977 µM | 8.06 | COc1ccc(CN(CCN(C)CCCCCCCCN)c2ccccn2)cc1
8 | 0.0363 µM | 7.18 | COc1ccc(CN(CCN(C)CCCCCCNC(=O)c2ccc(-c3c4ccc5cc(O)ccc5c4oc4c3ccc3cc(=O)ccc34)c(C(=O)O)c2)c2ccccn2)cc1
9 | 0.0263 µM | 7.68 | COc1ccc(CN(CCN(C)CCCCCCNC(=O)c2ccc(-c3c4ccc(=N)cc-4oc4cc(N)ccc34)c(C(=O)O)c2)c2ccccn2)cc1
10 | 0.00195 µM | 9.05 | COc1ccc(CN(CCN(C)CCCCCCNC(=O)CCCCCNc2ccc([N+](=O)[O-])c3nonc23)c2ccccn2)cc1
11 | 0.145 µM | 6.93 | COc1ccc(CN(CCN(C)CCNC(=O)c2ccc(C(=O)O)c(-c3c4ccc(=O)cc-4oc4cc(O)ccc34)c2)c2ccccn2)cc1
12 | 0.0214 µM | 8.17 | COc1ccc(CN(CCN(C)CCCCCCNC(=O)c2ccc(-c3c4ccc(=O)cc-4oc4cc(O)ccc34)c(C(=O)O)c2)c2ccccn2)cc1
13 | 0.0224 µM | 7.61 | COc1ccc(CN(CCN(C)CCCCN)c2ccccn2)cc1
14 | 0.00501 µM | 8.53 | COc1ccc(CN(CCN(C)CCCCCCCCNC(=O)c2ccc(C(=O)O)c(-c3c4ccc(=O)cc-4oc4cc(O)ccc34)c2)c2ccccn2)cc1
15 |  | 8.12 | COc1ccc(CN(CCN(C)CCNc2ccc([N+](=O)[O-])c3nonc23)c2ccccn2)cc1
16 | 0.0132 µM | 7.84 | COc1ccc(CN(CCN(C)CCN)c2ccccn2)cc1
17 | 0.0316 µM | 7.81 | COc1ccc(CN(CCN(C)CCCCNC(=O)c2ccc(C(=O)O)c(-c3c4ccc(=O)cc-4oc4cc(O)ccc34)c2)c2ccccn2)cc1
18 | 0.0263 µM | 8.4 | COc1ccc(CN(CCN(C)CCCCCCNC(=O)c2ccc(C(=O)O)c(-c3c4ccc(=O)cc-4oc4cc(O)ccc34)c2)c2ccccn2)cc1
19 | 0.0178 µM | 7.76 | COc1ccc(CN(CCN(C)CCCCCCNS(=O)(=O)c2cccc3c(N(C)C)cccc23)c2ccccn2)cc1
20 | 0.00661 µM | 8.12 | CNCCN(Cc1ccc(OC)cc1)c1ccccn1 [2-[(2-METHYLAMINOETHYL)(P-METHOXYBENZYL)AMINO]PYRIDINE]

— ChEMBL document CHEMBL1136672, “Synthesis and pharmacological activity of fluorescent histamine H1 receptor antagonists related to mepyramine” (Bioorg Med Chem Lett, 2003)
